In US11931335B2, “Enhancing autophagy or increasing longevity by administration of urolithins or precursors thereof” (Amazentis SA, priority 2012, dated 2024):
“Also recorded” adds a separate entry of the source. Read-outs that look alike come from different tables or passages of the source.

Experiments:
[1] = test system: aak-2(ok524) mutant C. elegans; format: in vivo; conditions: aak-2 (o524); for Lifespan extension compared to control (%): 50 μM UA vs 1% DMSO
Description: (§1) Lifespan assays were performed with (A) wild-type (N2), (B) sir-2.1(ok434) mutant, (C) aak-2(ok524), (D) daf-16(mu86), (E) eat-2(ad465) and (F) daf-2(e1370) mutant strains of C. elegans maintained during their full life on plates supplemented with either 50 μM of urolithin A or with a control treatment and seeded with OP50 bacteria. Control plates without urolithin A contained an equivalent concentration of DMSO. Worm lifespan assays were performed at 20° C.
aak-2/AMPK: aak-2 encodes the mammalian homolog of the AMP-dependent kinase AMPK in C. elegans.

[2] = test system: daf-16(mu86) mutant C. elegans; experiment: Lifespan assay, daf-16 mutant C. elegans; format: in vivo
Description: as §1
daf-16 encodes a FOXO transcription factor.

[3] = test system: daf-2(e1370) mutant C. elegans; format: in vivo
Description: as §1
daf-2 encodes for the insulin-like growth factor 1 (IGF-1) receptor in C. elegans.

[4] = test system: mitochondria in muscle of C. elegans strain SJ4103; experiment: Mitochondrial GFP reporter in muscle of C. elegans; format: in vivo; conditions: 50 μM from eggs, GFP after one day of adulthood; FIG. 7
Description: The worms were treated from eggs to the first day of adulthood. The strains used were the SJ4103 (zcIs14[myo-3::GFP(mit)]), which is a stable transgenic line expressing a mitochondrially localized green fluorescent protein (GFP) with a cleavable mitochondrial import signal peptide under the control of the specific body wall muscle promoter myo-3. GFP expression and quantification was carried out according to the protocol previously described. […] Fluorimetric assays were performed using a Victor X4 multilabel plate reader (Perkin-Elmer Life Science). Eighty worms were picked at random (20 worms per well of a black-walled 96-well plate), and each well was read four times and averaged.

ModeK cells = experiment: Autophagy western blot in ModeK cells; format: cell-based, mouse; conditions: 10 μM, 20 μM and 50 NM, eight hours
Description: The ability of urolithins to induce autophagy in mammalian cells was also examined. ModeK cells derived from intestine, were cultured in RPMI 1640 medium including 4.5 g/L glucose, 10% fetal calf serum, 1 mM Sodium Pyruvate, 10 mM HEPES, 0.1 mM NEAA, 2-Mercaptoethanol Penicillin 100 UI/mL and Streptomycin 100 μg/mL. Cells were cultured at 37° C. under a 5% CO2 atmosphere. Cells were treated with increasing concentrations of urolithin A (10 μM, 20 μM and […]). Treatment was performed for eight hours, after which cells were lysed and prepared for Western Blot analysis. Protein expression levels were examined for autophagy related proteins LC3-I and II (Cell Signaling antibody #4108), p62 (Cell Signalling antibody #5114), AMPKα (Cell Signaling antibody #2603), and p-AMPKα(Cell Signaling antibody #2531). The housekeeping protein, HSP90 (BD Transduction Laboratories antibody #610418) level was measured as a loading control.

[5] = test system: primary mouse hepatocytes; experiment: Autophagy western blot in primary hepatocytes; format: cell-based; conditions: 16 hour
Description: Isolated primary hepatocytes were cultured in Medium 199 including 4.5 g/L glucose, 10% fetal calf serum, 0.1 mM NEAA, 10 mM HEPES and 50 μg/mL gentamicin. These cells were then treated with either 10 μM, 20 μM or 50 μM of urolithin A for a 16 hour period, after which cells were lysed and prepared for Western Blot analysis.
Protein expression levels were examined for autophagy related proteins LC3-I and II (Cell Signaling antibody #4108), p62 (Cell Signalling antibody #5114), AMPKα (Cell Signaling antibody #2603), and p-AMPKα(Cell Signaling antibody #2531). The housekeeping protein, HSP90 (BD Transduction Laboratories antibody #610418) level was measured as a loading control.

[6] = test system: human primary skeletal muscle cells; experiment: Autophagy western blot in human primary myoblasts; format: cell-based; conditions: 10 μM, 20 μM, and 50 μM, 16 hours
Description: Human primary skeletal myocytes were cultured in vitro and exposed to increasing concentrations of urolithin A, including 10 μM, 20 μM, and 50 μM for 16 hours. Human skeletal myoblasts were grown in DMEM plus 2% horse serum. Control cells were treated with DMSO at an equivalent final concentration for the same period and served as the untreated control.
At the end of treatment, cells were lysed with RIPA buffer and applied to SDS-PAGE and analyzed by western blot. Protein expression levels were examined for autophagy-related proteins LC3-I and LC3-II (Cell Signaling antibody #4108), p62 (Cell Signaling antibody #5114), AMPKα (Cell Signaling antibody #2603), and p-AMPKα(Cell Signaling antibody #2531). The housekeeping protein, R-actin (Cell Signaling Antibody #4967) level was measured as a loading control.

[7] = test system: undifferentiated C2C12 mouse myoblasts; experiment: LC3B flow cytometry in C2C12 myoblasts; format: cell-based; conditions: for LC3B expression (LC3B-FITC fluorescence): 10 μM, 50 μM and 100 μM, 24 hours, FIG. 25
Description: To determine the ability of urolithin A to induce autophagy in mouse muscle cells, undifferentiated C2C12 mouse myoblasts were seeded in T25 flasks and incubated overnight. Cells were incubated in 5% CO2 at 37° C. These cells were treated with one of the urolithins-urolithin A (UA), urolithin B (UB), urolithin C (UC) or urolithin D (UD)—dissolved in a 0.1% solution of DMSO for 24 hours. In one experiment UA, UB, UC and UD were dosed at a concentration of 100 μM for C2C12 myoblast treatment. In a separate study, C2C12 myoblasts were incubated at increasing concentrations of UA (10 μM, 50 μM and 100 μM). For each experiment a control culture was treated with 0.1% DMSO for the same period and served as the untreated control. In the final 30 minutes of incubation, lysosome degradation inhibitor was added to the culture. The cells were then washed with phosphate buffer solution and then treated with a 1% solution of trypsin enzyme to remove the adhesive cells from the cell culture dishes. The cells were then treated with EMD Millipore selective permeabilization reagent to permeabilize the cells so as to make the internal cellular proteins accessible to antibody treatment. Cells were then incubated with antibody to LC3B according to kit protocol (EMD Millipore FlowCellect™ Autophagy LC3 Antibody-based Assay Kit (Cat no. FCCH100171)). The cells were then washed and resuspended in the kit assay buffer. The resulting cells were then run through a flow cytometer and LC3B-FITC fluorescence was quantified to measure the level of LC3B in C2C12 cells for the various treatments. When cells undergo autophagy their intracellular levels of LC3-II increase which is detected by this method. This autophagy can be detected by fluorescent antibody labeling of LC3B, which can be measured quantitatively using flow cytometry. An increase in cellular autophagy is reflected by an increasing signal in the histogram of LC3B FITC.

O=c1oc2cc(O)ccc2c2ccc(O)cc12 [Urolithin A, urolithin A]
Median lifespan ([1]; 50 μM UA): 18 days
Lifespan extension compared to control (%) [1]: 12.5%
Lifespan extension compared to control (%) ([1]; listed as UA): +12.5%
Median lifespan ([2]; 50 μM UA): 23 days
Lifespan extension compared to control (%) ([2]; 50 μM UA vs 1% DMSO): +43.7%
Median lifespan ([3]; daf-2, 50 μM UA): 48 days
Lifespan extension compared to control (%) ([3]; daf-2, 50 μM UA vs 1% DMSO): +14.2%
activity of urolithin A on the extension of median lifespan ([3]; daf-2 mutant): completely suppressed
expression of the mitochondrial GFP reporter (myo-3 promoter) [4]: striking increase in GFP expression
levels of p62 (ModeK cells): decreased
ratio of LC3-II/LC3-I vs vehicle-treated cells (ModeK cells; FIG. 14): ≤ 10 fold
P62 protein levels ([5]; 10 μM, 20 μM or 50 μM): decrease
ratio of LC3-II to LC3-I ([5]; 10 μM, 20 μM or 50 μM, FIG. 15): dose-dependent effect and increase
ratio of p-AMPKα/AMPK-u vs control cells ([5]; 20 and […]): above 10 fold
levels of p62 [6]: decrease
ratio of pAMPKα/AMPKα [6]: increasing several fold
ratio of LC3-II to LC3-I ([6]; FIG. 17): dose-dependent increase
LC3B expression (LC3B-FITC fluorescence) [7]: dose dependent
LC3B expression (LC3B-FITC fluorescence) ([7]; listed as UA): dose response
LC3B signal (shift of the histogram) ([7]; 100 μM, 24 hrs, FIG. 26, listed as UA): increasing signal of LC3B; also recorded: increase in autophagy
